# Assay results reported in patent US11504362B2, “Liquid dosage forms to treat cancer” (Exelixis, Inc., priority 2017, dated 2022).
# Values joined by “and” are separate entries in the source; they are usually repeats but may differ in a detail not shown here. Equal values may be shown once.
# Columns and labels:
# [1] = target: VEGFR2 (Mus musculus, UniProt P35918); conditions: administration to mice; Yakes, et al. 2011; cited from earlier work
# [2] = Mass balance: excretion and recovery of 14C total radioactivity in urine and feces; format: in vivo, human
# From the text: Methodology: This was an open-label, single-dose, single-center, mass balance, Phase 1 study in healthy male volunteers. There were two study periods: a Screening Period, during which subjects underwent assessments to determine their eligibility for the study, and an On-study Period, which started on Day-1 (‘check-in’ day) when the subject was admitted to the Celerion clinic. […] However, subjects who were discharged from the clinic before Day 28 were required to return to the clinic for all remaining scheduled pharmacokinetic blood sampling and the Day 28 safety assessments. Subjects not meeting radioactivity release criteria by Day 28 could be asked to remain confined in the clinic or continue collection of urine and feces at home (returning samples to the clinic daily) for up to an additional 7 days (through to Day 35). Due to the fact that by Day 35 subjects had still not met release criteria, subjects were given the option of withdrawing from the study or completing the additional 14-day collection period (either in the clinic or as a daily visitor) with urine and feces collections and daily adverse event (AE) inquiries. All urine and fecal collections for all subjects stopped following the conclusion of the Day 49 scheduled events regardless of percentage of total radioactive dose recovered.
# A single dose oral solution was administered at Hour 0 on Day 1 by the clinic staff. The dose was given via the scintillation vial. Following dosing, the scintillation vial was rinsed 3 times with room temperature distilled water, and the rinsate was administered to the subject. Residual radioactivity was determined for each dosing vial. The total volume of liquid administered including radiolabelled study drug, rinses, and water given for dosing (in addition to the rinses) was the same for each subject.
# Mass balance was calculated as the percent of total administered radioactivity recovered in urine and feces. For the purpose of calculating mass balance, the amount of administered radioactivity was defined as the total radioactivity in the dosing solution minus any radioactivity lost due to emesis (if any occurred), adsorption to the dosing vial, etc.
# Subjects were asked to empty their bladders within approximately 60 minutes prior to dosing for the pre-dose sample. Samples were collected during the 0 to 8 hours and 8 to 24 hours post-dose intervals, and then continuing in 24-hour intervals through Day 49. For subjects who met early release criteria, sampling could cease upon discharge from the clinic. […] One subject was released from the clinic following the 864 hour interval (Day 37) collection and no longer provided excreta samples.
# Subjects were asked to bring a pre-dose stool sample with them at check-in (produced within 24 hours of check-in). Stools produced between subject check-in and dosing were collected for the pre-dose sample as well, and the sample produced nearest to dosing was used as the pre-dose sample. Post-dose stools were collected in 24-hour intervals through the morning of Day 49. For subjects who met early release criteria, sampling could cease upon discharge from the clinic. […] One subject was released from the clinic following the 864 hour interval (Day 37) collection and no longer provided excreta samples.
# For each subject, multiple fecal specimens from each 24-hour interval were combined into a pre-weighed wide mouth polypropylene/polyethylene container and appropriately labeled. For each interval, the fecal sample was weighed to determine the final fecal weight. Each sample was homogenized into a slurry (approximately 20% suspension in water) from which the necessary aliquots were taken.
# Mass balance was calculated as the percent of total administered radioactivity recovered in urine and feces. […]
# [3] = single 175 mg oral dose, through 48 days, mean ± SD (% CV), n = 8
# Sequence of VEGFR2 (P35918 20-1345): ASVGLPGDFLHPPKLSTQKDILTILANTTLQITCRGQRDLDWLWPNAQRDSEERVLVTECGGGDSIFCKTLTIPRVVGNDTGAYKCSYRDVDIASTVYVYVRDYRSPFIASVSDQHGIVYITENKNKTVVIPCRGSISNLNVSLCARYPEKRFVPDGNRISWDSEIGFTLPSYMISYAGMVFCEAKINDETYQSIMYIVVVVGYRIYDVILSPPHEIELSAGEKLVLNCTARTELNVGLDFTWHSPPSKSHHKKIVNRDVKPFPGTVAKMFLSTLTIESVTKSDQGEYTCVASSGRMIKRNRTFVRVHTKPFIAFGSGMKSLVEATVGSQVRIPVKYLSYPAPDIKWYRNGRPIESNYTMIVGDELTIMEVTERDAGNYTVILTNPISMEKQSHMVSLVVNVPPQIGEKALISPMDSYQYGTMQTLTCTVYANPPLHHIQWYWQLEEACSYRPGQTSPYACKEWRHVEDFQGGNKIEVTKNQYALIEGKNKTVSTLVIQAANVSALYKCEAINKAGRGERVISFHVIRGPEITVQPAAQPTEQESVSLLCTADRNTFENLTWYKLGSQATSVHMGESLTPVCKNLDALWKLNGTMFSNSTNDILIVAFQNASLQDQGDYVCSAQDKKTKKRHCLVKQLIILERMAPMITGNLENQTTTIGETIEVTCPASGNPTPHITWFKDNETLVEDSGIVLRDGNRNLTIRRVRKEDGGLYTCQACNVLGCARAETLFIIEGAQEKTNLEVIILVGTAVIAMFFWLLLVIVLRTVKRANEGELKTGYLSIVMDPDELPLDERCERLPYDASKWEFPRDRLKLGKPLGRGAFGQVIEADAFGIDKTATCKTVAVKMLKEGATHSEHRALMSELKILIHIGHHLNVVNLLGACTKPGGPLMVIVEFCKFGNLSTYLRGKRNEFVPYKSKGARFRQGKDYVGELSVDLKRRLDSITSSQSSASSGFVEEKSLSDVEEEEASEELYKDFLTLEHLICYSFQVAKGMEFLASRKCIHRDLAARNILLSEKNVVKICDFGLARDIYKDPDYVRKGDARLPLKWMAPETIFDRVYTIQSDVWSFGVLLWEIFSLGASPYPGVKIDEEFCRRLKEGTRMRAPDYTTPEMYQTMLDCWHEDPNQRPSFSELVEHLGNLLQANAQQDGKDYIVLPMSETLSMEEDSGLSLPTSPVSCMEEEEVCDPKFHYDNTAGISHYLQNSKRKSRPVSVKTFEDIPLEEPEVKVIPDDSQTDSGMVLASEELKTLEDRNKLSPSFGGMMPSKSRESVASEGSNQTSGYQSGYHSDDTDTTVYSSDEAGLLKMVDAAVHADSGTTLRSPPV
compound,measurement,setting,value
"COc1cc2nccc(Oc3ccc(NC(=O)C4(C(=O)Nc5ccc(F)cc5)CC4)cc3)c2cc1OC [XL184, N-(4-{[6,7-bis(methyloxy)quinolin-4-yl]oxy}phenyl)-N′-(4-fluorophenyl)cyclopropane-1,1-dicarboxamide]",Inhibition of VEGFR2 in vivo,[1],dose-dependent inhibition
same,Urine cumulative excretion of 14C total radioactivity,"[2]; Day 1 (24 hrs), individual subjects",2.32% and 4.30% and 3.22% and 7.81% and 3.81% and 3.89% and 4.78% and 3.38%
same,Urine cumulative excretion of 14C total radioactivity,"[2]; Day 1 (24 hrs), mean",4.19%
same,Urine cumulative excretion of 14C total radioactivity,"[2]; Day 2 (48 hrs), individual subjects",4.70% and 8.75% and 6.39% and 14.86% and 7.68% and 8.34% and 9.68% and 7.07%
same,Urine cumulative excretion of 14C total radioactivity,"[2]; Day 2 (48 hrs), mean",8.43%
same,Urine cumulative excretion of 14C total radioactivity,"[2]; Day 3 (72 hrs), individual subjects",7.26% and 13.09% and 9.22% and 20.34% and 11.00% and 12.23% and 13.67% and 9.75%
same,Urine cumulative excretion of 14C total radioactivity,"[2]; Day 3 (72 hrs), mean",12.07%
same,Urine cumulative excretion of 14C total radioactivity,"[2]; Day 4 (96 hrs), individual subjects",9.65% and 16.19% and 11.53% and 24.39% and 13.47% and 15.11% and 16.57% and 12.11%
same,Urine cumulative excretion of 14C total radioactivity,"[2]; Day 4 (96 hrs), mean",14.88%
same,Urine cumulative excretion of 14C total radioactivity,"[2]; Day 5 (120 hrs), individual subjects",11.74% and 18.60% and 13.44% and 27.04% and 15.59% and 17.46% and 18.91% and 13.86%
same,Urine cumulative excretion of 14C total radioactivity,"[2]; Day 5 (120 hrs), mean",17.08%
same,Urine cumulative excretion of 14C total radioactivity,"[2]; Day 6 ([…]), mean",18.72%
same,Urine cumulative excretion of 14C total radioactivity,"[2]; Day 7 ([…]), mean",20.04%
same,Urine cumulative excretion of 14C total radioactivity,"[2]; Day 8 (192 hrs), individual subjects",16.27% and 23.34% and 16.60% and 31.32% and 19.36% and 21.56% and 23.11% and 18.17%
same,Urine cumulative excretion of 14C total radioactivity,"[2]; Day 8 (192 hrs), mean",21.22%
same,Urine cumulative excretion of 14C total radioactivity,"[2]; Day 9 (216 hrs), individual subjects",17.35% and 24.24% and 17.22% and 32.02% and 20.33% and 22.44% and 23.99% and 19.02%
same,Urine cumulative excretion of 14C total radioactivity,"[2]; Day 9 (216 hrs), mean",22.08%
same,Urine cumulative excretion of 14C total radioactivity,"[2]; Day 10 (240 hrs), individual subjects",18.26% and 25.17% and 17.67% and 32.59% and 21.12% and 23.24% and 24.71% and 19.68%
same,Urine cumulative excretion of 14C total radioactivity,"[2]; Day 10 (240 hrs), mean",22.81%
same,Urine cumulative excretion of 14C total radioactivity,"[2]; Day 11 ([…]), mean",23.42%
same,Cumulative recovery of total radioactivity in feces,[2]; [3],53.79% of Dose
same,Cumulative recovery of total radioactivity in urine,[2]; [3],27.29% of Dose
same,"Cumulative recovery of total radioactivity, total (urine and feces)","[2]; single 175 mg oral dose, within 48 days, mean ± SD (% CV), n = 8",81.09% of Dose
